Assay results: publication PMC4574608, “Genomic profiling of a Hepatocyte growth factor-dependent signature for MET-targeted therapy in glioblastoma” (Journal of Translational Medicine, 2015)
“Also recorded” adds a separate entry of the source.

Columns and labels:
U87MG cells = experiment: 3D cell invasion assay (spheroid dispersal on Matrigel); type: cell-based, human; conditions: at 50 μM, day 3
Experimental: U87MG cells were first grown in 1 % soft agar (Sigma) for 7 days to form spheroids. Each spheroid was then selected and placed onto Matrigel in a well to attach overnight (day 0), followed by treatment with DMSO or serially diluted compounds. Images were taken after an additional 3 days under a light microscope. Triplicates were tested for each concentration.

G116 PDX model = experiment: GBM PDX therapeutic efficacy; type: in vivo, mouse; conditions: G116, highest HGF expression, single agent
Experimental: (§1) All animal studies were approved by the IACUC of Van Andel Research Institute. Subcutaneous and orthotopic tumor initiation were performed as previously described. The orthotopic tumor growth was measured by bioluminescence signal intensity (BLI) using a small animal optical imager AMI 1000 (Spectral Instruments Imaging, LLC). Dosing with V-4084 and/or erlotinib was delivered once daily by oral gavage for 3 weeks. Vehicles used were 0.5 % MC 400 with 0.05 % Tween 80 (for V-4084) and with 0.5 % (w/v) methyl cellulose (for erlotinib). To determine the effectiveness of treatment, the average tumor size of each group from the last measurement was analyzed with Student’s t test (p < 0.05).

G91 PDX model = experiment: GBM PDX therapeutic efficacy; type: in vivo, mouse; conditions: G91, no HGF expression, single agent
Experimental: as §1

KCI-10-40X1 tumors = experiment: EGFRamp PDX therapeutic efficacy; type: in vivo, mouse
Experimental: as §1
(§2) To induce acquired resistance, KCI-10-40X1cells were inoculated into nude mice subcutaneously followed by continuous erlotinib treatment (75–100 mg/kg). […] The same transplant procedure was serially repeated four times to establish the tumor model adaptive to erlotinib treatment (KCI-10-40X1/erl). […] A combination of V-4084 and erlotinib, however, retarded KCI-10-40X1/erl tumor growth (Fig. 5E).

KCI-10-40X1/erl tumors = experiment: Erlotinib-resistant EGFRamp PDX therapeutic efficacy; type: in vivo, mouse; conditions: continued erlotinib treatment, discontinuing accelerated growth
Experimental: as §1, §2

| Structure (SMILES) | U87MG cell dispersal (anti-migratory activity) (U87MG cells) | PDX tumor response to treatment (G116 PDX model) | PDX tumor response to treatment (G91 PDX model) | Time of continuous treatment until tumors regrow (start of acquired resistance) (KCI-10-40X1 tumors; KCI-10-40X1, continuous erlotinib 75–100 mg/kg) [weeks] | Tumor response to treatment (KCI-10-40X1 tumors; KCI-10-40X1 subcutaneous in nude mice, erlotinib 75 mg/kg, first week) | Tumor growth (KCI-10-40X1/erl tumors) |
| --- | --- | --- | --- | --- | --- | --- |
| Cn1nnc2c(C(N)=O)ncn2c1=O [TMZ, Temozolomide] | failed to show any anti-migratory activity | – | – | – | – | – |
| C#Cc1cccc(Nc2ncnc3cc(OCCOC)c(OCCOC)cc23)c1 [erlotinib] | – | no effect | exactly the opposite | 5 | high sensitivity; also recorded: significant tumor regression | grow while on erlotinib treatment |
